Results reported in patent US12509482B2, “3′-ketoglycoside compound for the slow release of a volatile alcohol” (GLYCOSCIENCE, S.L., priority 2020, dated 2025).

What was measured:
Format in all cases: physicochemical
[1] = Example 25: release of geraniol from geranyl-O-β-D-2′-acetamido-2′-deoxy-3′-keto-glucopyranoside vs geranyl-β-2′-acetamido-2′-deoxy-glucopyranoside, 0.1 M deuterated phosphate buffer or D2O, 33% D6-DMSO, 32° C.; settings: for stability / geraniol release (in words): 32° C.
Source text: In this example the rate of release of geraniol from N-((2R,3S,5R,6R)-2-(((E)-3,7-dimethylocta-2,6-dien-1-yl)oxy)-5-hydroxy-6-(hydroxymethyl)-4-oxotetrahydro-2H-pyran-3-yl)acetamide (geranyl-O-β-D-2′-acetamido-2′-deoxy-3′-keto-glucopyranoside) vs. N-((2R,3R,4R,5S,6R)-2-(((E)-3,7-dimethylocta-2,6-dien-1-yl)oxy)-4,5-dihydroxy-6-(hydroxymethyl)tetrahydro-2H-pyran-3-yl)acetamide (geranyl-R-2′-acetamido-2′-deoxy-glucopyranoside) in D2O containing 33% D6-DMSO or in 0.1 M deuterated phosphate buffer solutions of differing pH containing 33% D6-DMSO or in D2O was determined.
(§1) 0.1 M of pH 5.8 and 7.4 stock buffered solutions of sodium dihydrogen phosphate and disodium hydrogen phosphate were prepared in deuterated water (D2O).
A stock solution of 25 mg of geranyl-O-β-D-2′-acetamido-2′-deoxy-3′-keto-glucopyranoside in 1.0 mL of D6-DMSO were prepared.
To four parallel reaction vials, where indicated in the reaction table below, was added 0.20 mL of the glycoside substrate solutions in D6-DMSO and 0.40 mL of low or high pH 0.1M phosphate buffer in D2O and the mixtures incubated by shaking at 32° C. After times indicated in table below, the mixtures where analysed by ^1H-NMR in a 400 MHz instrument.

[2] = Example 23: release of methanol from methyl-O-α-D-3′-ketomannopyranoside vs methyl-O-α-D-mannopyranoside, 0.1 M deuterated phosphate buffer or D2O, 15% D6-DMSO, 32° C.
Method: In this example the rate of release of methanol from (2R,3R,5R,6S)-3,5-dihydroxy-2-(hydroxymethyl)-6-methoxytetrahydro-4H-pyran-4-one (methyl-O-α-D-3′-ketomannopyranoside) vs. (2R,3S,4S,5S,6S)-2-(hydroxymethyl)-6-methoxytetrahydro-2H-pyran-3,4,5-triol (methyl-O-α-D-mannopyranoside) in D2O containing 15% D6-DMSO or in 0.1 M deuterated phosphate buffer solutions of differing pH containing 15% D6-DMSO or in D2O was determined.
as §1
A stock solution of 25 mg of methyl-O-α-D-3′-ketoglucomannoside in 1.0 mL of D6-DMSO were prepared.
(§2) After times indicated in table below, the mixtures where analysed by ^1H-NMR in a 400 MHz instrument.

[3] = Example 24: release of geraniol from geranyl-3′-keto-2′-deoxyglucopyranoside vs 2′-deoxyglucopyranoside, 0.1 M deuterated phosphate buffer or D2O, 50% D6-DMSO, 32° C.
Method: In this example the rate of release of geraniol from (2R,3R)-6-(((E)-3,7-dimethylocta-2,6-dien-1-yl)oxy)-3-hydroxy-2-(hydroxymethyl)tetrahydro-4H-pyran-4-one in (geranyl-3′-keto-2′-deoxyglucopyranoside) 0.1 M deuterated phosphate buffer solutions of differing pH containing 50% D6-DMSO was determined.
as §1
A stock solution of 15 mg of geraniol-O-β-D-3′-keto-2′-deoxyglucopyranoside in 1.5 mL of D6-DMSO were prepared.
as §2

[4] = Example 22: competitive release of para-nitrophenol from an approximately equimolar solution of 4-nitrophenyl-O-β-D- and -O-α-D-3′-ketoglucopyranoside, 32° C., 1H NMR integrals
Source text: In this example the competitive rate of release of para-nitrophenol from an approximately equimolar solution of (2R,5S,6S)-3,5-dihydroxy-2-(hydroxymethyl)-6-(4-nitrophenoxy)tetrahydro-4H-pyran-4-one (4-nitrophenyl-O-β-D-3′-ketoglucopyranoside) and (2R,5S,6S)-3,5-dihydroxy-2-(hydroxymethyl)-6-(4-nitrophenoxy)tetrahydro-4H-pyran-4-one (4-nitrophenyl-O-α-D-3′-ketoglucopyranoside) in D2O containing 1.5% D6-DMSO or in 0.1 M deuterated phosphate buffer, pH 5.8 containing 1.5% D6-DMSO or in D2O was determined.
A solution containing approximately 2 mg each of 4-nitrophenyl-O-β-D-3′-ketoglucopyranoside and 4-nitrophenyl-O-α-D-3′-ketoglucopyranoside was prepared in 1 mL of D2O containing 3.3% v/v D6-DMSO. To two 0.375 mL portions of the resultant solution was added either D2O (0.5 mL) or 0.1M sodium phosphate buffer, pH 5.8 (0.5 mL) to given reactions 1 and 2 respectively. The resultant mixtures were analysed by ^1H NMR directly following preparation then incubated at 32° C./80 rpm and periodically analysed by ^1H NMR at recorded time points.
The change in the ratio between the integrals of the anomeric protons of each ketoglucoside and between the were sum of the anomeric protons and the anomeric protons of each ketoglucoside with time are shown in Table IX: […]

[5] = Reaction 2, 0.1M sodium phosphate buffer, pH 5.8, 0 h
[6] = Reaction 2, 0.1M sodium phosphate buffer, pH 5.8, 20 h
[7] = Reaction 2, 0.1M sodium phosphate buffer, pH 5.8, 45 h

Compound: CC(=O)N[C@@H]1C(=O)[C@H](O)[C@@H](CO)O[C@H]1OC/C=C(\C)CCC=C(C)C [N-((2R,3S,5R,6R)-2-(((E)-3,7-dimethylocta-2,6-dien-1-yl)oxy)-5-hydroxy-6-(hydroxymethyl)-4-oxotetrahydro-2H-pyran-3-yl)acetamide]
- stability / geraniol release (in words) [1]: generates geraniol at both pH 5.8 and pH 7.4
- % Conversion by 1H-NMR ([1]; D2O, 0 h): 0%
- % Conversion by 1H-NMR ([1]; D2O, 1.5 h): 0%
- % Conversion by 1H-NMR ([1]; D2O, 22 h): 0%
- % Conversion by 1H-NMR ([1]; D2O, 48 h): 0%
- % Conversion by 1H-NMR ([1]; D2O, 216 h): 0%
- % Conversion by 1H-NMR ([1]; pH 5.8, 0 h): 0%
- % Conversion by 1H-NMR ([1]; pH 5.8, 1.5 h): 5%
- % Conversion by 1H-NMR ([1]; pH 5.8, 22 h): 25%
- % Conversion by 1H-NMR ([1]; pH 5.8, 48 h): 32%
- % Conversion by 1H-NMR ([1]; pH 5.8, 216 h): 39%
- % Conversion by 1H-NMR ([1]; pH 7.4, 0 h): 0%
- % Conversion by 1H-NMR ([1]; pH 7.4, 1.5 h): 5%
- % Conversion by 1H-NMR ([1]; pH 7.4, 22 h): 88%
- % Conversion by 1H-NMR ([1]; pH 7.4, 48 h): 100%
- % Conversion by 1H-NMR ([1]; pH 7.4, 216 h): 100%
- rate of geraniol release compared with other ketoglycosides (in words) ([1]; similar conditions): greater than observed from geranyl-3′-keto-2′-deoxyglucopyranoside (Example 25) or geranyl-O-β-D-3′-ketoglucopyranoside (Example 17) under similar conditions

Compound: CO[C@H]1O[C@H](CO)[C@@H](O)C(=O)[C@@H]1O [methyl-O-α-D-3′-ketomannopyranoside, (2R,3R,5R,6S)-3,5-dihydroxy-2-(hydroxy-methyl)-6-methoxytetrahydro-4H-pyran-4-one]
- stability / methanol release (in words) ([2]; 4.2 mg/mL): generates methanol at both pH 5.8 and pH 7.4
- % Conversion by 1H-NMR ([2]; D2O, 0 h): 0%
- % Conversion by 1H-NMR ([2]; D2O, 22 h): 0%
- % Conversion by 1H-NMR ([2]; pH 5.8, 0 h): 0%
- % Conversion by 1H-NMR ([2]; pH 5.8, 22 h): 71%
- % Conversion by 1H-NMR ([2]; pH 5.8, 96 h): 78%
- % Conversion by 1H-NMR ([2]; pH 5.8, 192 h): 78%
- % Conversion by 1H-NMR ([2]; pH 7.4, 0 h): 0%
- % Conversion by 1H-NMR ([2]; pH 7.4, 22 h): 54%
- % Conversion by 1H-NMR ([2]; pH 7.4, 96 h): 74%
- % Conversion by 1H-NMR ([2]; pH 7.4, 192 h): 88%

Compound: CC(C)=CCC/C(C)=C/CO[C@H]1C[C@@H](O)[C@H](O)[C@@H](CO)O1 [geranyl-O-2′-deoxyglucopyranoside, geranyl 2′-deoxy-β-D-glucopyranoside, reference compound]
- stability / geraniol release (in words) [3]: remains stable at pH 7.4
- % Conversion by 1H-NMR ([3]; pH 7.4, 0 h): 0%
- % Conversion by 1H-NMR ([3]; pH 7.4, 1 h): 0%
- % Conversion by 1H-NMR ([3]; pH 7.4, 72 h): 0%
- % Conversion by 1H-NMR ([3]; pH 7.4, 144 h): 0%
- % Conversion by 1H-NMR ([3]; pH 7.4, 288 h): 0%

Compound: CO[C@H]1O[C@H](CO)[C@@H](O)[C@H](O)[C@@H]1O [methyl-O-α-D-mannopyranoside, (2R,3S,4S,5S,6S)-2-(hydroxymethyl)-6-methoxytetrahydro-2H-pyran-3,4,5-triol]
- stability / methanol release (in words) ([2]; 32° C.): remains stable at pH 7.4 and in water
- % Conversion by 1H-NMR ([2]; D2O, 0 h): 0%
- % Conversion by 1H-NMR ([2]; D2O, 22 h): 0%
- % Conversion by 1H-NMR ([2]; D2O, 96 h): 0%
- % Conversion by 1H-NMR ([2]; pH 7.4, 0 h): 0%
- % Conversion by 1H-NMR ([2]; pH 7.4, 22 h): 0%
- % Conversion by 1H-NMR ([2]; pH 7.4, 96 h): 0%
- % Conversion by 1H-NMR ([2]; pH 7.4, 192 h): 0%

Compound: CC(=O)N[C@H]1[C@H](OC/C=C(\C)CCC=C(C)C)O[C@H](CO)[C@@H](O)[C@@H]1O [N-((2R,3R,4R,5S,6R)-2-(((E)-3,7-dimethylocta-2,6-dien-1-yl)oxy)-4,5-dihydroxy-6-(hydroxymethyl)tetrahydro-2H-pyran-3-yl)acetamide, reference compound]
- stability / geraniol release (in words) [1]: remains stable at pH 7.4
- % Conversion by 1H-NMR ([1]; pH 7.4, 0 h): 0%
- % Conversion by 1H-NMR ([1]; pH 7.4, 1.5 h): 0%
- % Conversion by 1H-NMR ([1]; pH 7.4, 22 h): 0%
- % Conversion by 1H-NMR ([1]; pH 7.4, 48 h): 0%
- % Conversion by 1H-NMR ([1]; pH 7.4, 216 h): 0%

Compound: O=C1[C@@H](O)[C@@H](Oc2ccc([N+](=O)[O-])cc2)O[C@H](CO)[C@H]1O
- ratio of the sum of aromatic/α-ketoglucoside proton integrals ([4]; Reaction 1, D2O, 0 h): 6.9
- ratio of α-/β-ketoglucoside proton integrals ([4]; Reaction 1, D2O, 0 h): 1.0
- ratio of the sum of aromatic/α-ketoglucoside proton integrals ([4]; Reaction 1, D2O, 20 h): 7.1
- ratio of α-/β-ketoglucoside proton integrals ([4]; Reaction 1, D2O, 20 h): 1.2
- ratio of the sum of aromatic/α-ketoglucoside proton integrals ([4]; Reaction 1, D2O, 45 h): 6.8
- ratio of α-/β-ketoglucoside proton integrals ([4]; Reaction 1, D2O, 45 h): 1.3
- ratio of α-/β-ketoglucoside proton integrals ([4]; Reaction 1, D2O, 72 h): 1.3
- ratio of the sum of aromatic/α-ketoglucoside proton integrals ([4]; Reaction 1, D2O, 143 h): 6.2
- ratio of the sum of aromatic/α-ketoglucoside proton integrals [4, 5]: 5.7
- ratio of α-/β-ketoglucoside proton integrals [4, 5]: 1.2
- ratio of the sum of aromatic/α-ketoglucoside proton integrals [4, 6]: 9.3
- ratio of α-/β-ketoglucoside proton integrals [4, 6]: 0.8
- ratio of the sum of aromatic/α-ketoglucoside proton integrals [4, 7]: 14.2
- ratio of α-/β-ketoglucoside proton integrals [4, 7]: 0.7
- ratio of α-/β-ketoglucoside proton integrals ([4]; Reaction 2, 0.1M sodium phosphate buffer, pH 5.8, 72 h): 0.35
- ratio of the sum of aromatic/α-ketoglucoside proton integrals ([4]; Reaction 2, 0.1M sodium phosphate buffer, pH 5.8, 143 h): 30.2

Compound: CC(C)=CCC/C(C)=C/CO[C@H]1CC(=O)[C@H](O)[C@@H](CO)O1 [geranyl-3′-keto-2′-deoxyglucopyranoside, (2R,3R)-6-(((E)-3,7-dimethylocta-2,6-dien-1-yl)oxy)-3-hydroxy-2-(hydroxymethyl)tetrahydro-4H-pyran-4-one]
- stability / geraniol release (in words) ([3]; 32° C.): generates geraniol at both pH 5.8 and pH 7.4
- % Conversion by 1H-NMR ([3]; D2O, 0 h): 0%
- % Conversion by 1H-NMR ([3]; D2O, 1 h): 0%
- % Conversion by 1H-NMR ([3]; D2O, 72 h): <5%
- % Conversion by 1H-NMR ([3]; D2O, 144 h): <5%
- % Conversion by 1H-NMR ([3]; pH 5.8, 0 h): 0%
- % Conversion by 1H-NMR ([3]; pH 5.8, 1 h): 5%
- % Conversion by 1H-NMR ([3]; pH 5.8, 72 h): 32%
- % Conversion by 1H-NMR ([3]; pH 5.8, 144 h): 38%
- % Conversion by 1H-NMR ([3]; pH 5.8, 288 h): 47%
- % Conversion by 1H-NMR ([3]; pH 7.4, 0 h): 0%
- % Conversion by 1H-NMR ([3]; pH 7.4, 1 h): 6%
- % Conversion by 1H-NMR ([3]; pH 7.4, 72 h): 57%
- % Conversion by 1H-NMR ([3]; pH 7.4, 144 h): 88%
- % Conversion by 1H-NMR ([3]; pH 7.4, 288 h): 100%
- rate of geraniol release compared with other ketoglycosides (in words) ([3]; similar conditions): greater than observed from geranyl-O-β-D-3′-ketoglucopyranoside under similar conditions
